In US20230265151A1, “GIP/GLP1 CO-AGONIST COMPOUNDS” (priority 2020, published 2023) one finds EC50 and Emax data, which are given here for two compounds.

Holding throughout (assay type): cell-based
One experiment deals with T1, hGCGR (Homo sapiens, UniProt P47871).
T1 construct: expressed in transfected cells
The experiment in a line: Functional cAMP formation (HTRF) in HEK-293 clonal cells expressing hGCGR, 0.1% bovine casein, without or with 1.0% human serum albumin. To be noted: read-out: hGCGR EC50, nM (SEM, n). The essentials:
(§1)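 Readings of the HTRF 665/620 nm ratio, which falls as cAMP rises, were converted to nM cAMP using a standard curve after 30 min peptide exposure at 37° C.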
A general note: Cyclic AMP is a second messenger, typically raised through Gs and lowered through Gi signalling.

The target of the next experiment is T2, hGIPR (Homo sapiens, UniProt P48546).
T2 construct: expressed in transfected cells
T2 sequence (P48546 22-466): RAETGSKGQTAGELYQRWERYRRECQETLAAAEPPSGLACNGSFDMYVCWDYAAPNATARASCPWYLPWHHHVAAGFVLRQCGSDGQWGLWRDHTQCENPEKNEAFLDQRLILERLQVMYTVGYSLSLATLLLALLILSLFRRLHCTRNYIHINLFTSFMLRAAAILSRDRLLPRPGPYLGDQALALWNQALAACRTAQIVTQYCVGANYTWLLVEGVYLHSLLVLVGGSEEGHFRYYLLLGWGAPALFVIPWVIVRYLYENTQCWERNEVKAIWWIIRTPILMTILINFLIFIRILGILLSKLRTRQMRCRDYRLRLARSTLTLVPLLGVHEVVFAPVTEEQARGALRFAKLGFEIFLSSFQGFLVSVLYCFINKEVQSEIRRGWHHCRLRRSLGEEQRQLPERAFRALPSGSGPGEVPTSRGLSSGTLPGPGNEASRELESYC
The experiment in a line: Functional cAMP formation (HTRF) in HEK-293 clonal cells expressing hGIPR, 0.1% bovine casein, without or with 1.0% human serum albumin. To be noted: for Emax: percent of maximal response to GIP(1-42)NH2, read-out: hGIPR Emax, % ± SEM; for EC50: cAMP, 0.1% bovine casein (no human serum albumin), geometric mean, read-out: hGIPR EC50, nM (SEM, n). Put shortly:
as §1

In another experiment the target is hGLP-1R (Homo sapiens, UniProt P43220). The experiment in a line: Functional cAMP formation (HTRF) in HEK-293 clonal cells expressing hGLP-1R, 0.1% bovine casein, without or with 1.0% human serum albumin. To be noted: 37° C.; for Emax: read-out: hGLP-1R Emax, % ± SEM; for EC50: cAMP, read-out: hGLP-1R EC50, nM (SEM, n). Details: expressed in transfected cells. The essentials:
as §1

SMILES strings stand for the structures. Where two headings read alike, the source gives them in different places. Some results are limits rather than exact numbers.

T1 sequence (P47871 26-477): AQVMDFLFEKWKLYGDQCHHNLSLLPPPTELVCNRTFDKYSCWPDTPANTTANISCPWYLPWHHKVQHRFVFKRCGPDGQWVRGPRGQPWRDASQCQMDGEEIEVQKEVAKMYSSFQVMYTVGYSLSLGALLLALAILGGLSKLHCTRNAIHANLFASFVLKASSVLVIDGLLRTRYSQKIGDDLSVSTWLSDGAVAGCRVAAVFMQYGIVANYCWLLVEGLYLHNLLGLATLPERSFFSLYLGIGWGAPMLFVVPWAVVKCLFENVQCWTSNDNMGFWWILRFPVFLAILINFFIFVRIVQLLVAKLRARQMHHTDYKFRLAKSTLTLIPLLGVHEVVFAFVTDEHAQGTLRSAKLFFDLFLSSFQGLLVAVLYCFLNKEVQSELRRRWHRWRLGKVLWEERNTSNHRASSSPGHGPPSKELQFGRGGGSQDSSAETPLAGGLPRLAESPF
Sequence of hGLP-1R (P43220 24-463): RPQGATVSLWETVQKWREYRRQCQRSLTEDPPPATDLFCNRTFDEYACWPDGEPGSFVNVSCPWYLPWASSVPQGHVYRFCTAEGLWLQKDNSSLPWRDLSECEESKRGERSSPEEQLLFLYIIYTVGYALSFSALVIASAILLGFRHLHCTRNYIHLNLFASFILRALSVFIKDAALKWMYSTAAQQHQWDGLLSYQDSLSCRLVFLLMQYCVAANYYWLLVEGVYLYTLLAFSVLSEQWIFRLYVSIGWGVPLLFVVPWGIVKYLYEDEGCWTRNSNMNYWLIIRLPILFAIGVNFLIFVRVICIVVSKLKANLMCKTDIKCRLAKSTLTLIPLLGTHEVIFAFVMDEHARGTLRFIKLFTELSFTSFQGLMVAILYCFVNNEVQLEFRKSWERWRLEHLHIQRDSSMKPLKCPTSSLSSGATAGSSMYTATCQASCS

The EC50 is the concentration needed to bring the measured effect to its halfway point. The term Emax denotes the maximal effect, on the per cent scale that the assay sets. Turning to `CC[C@H](C)[C@H](NC(=O)[C@H](CC(C)C)NC(=O)[C@](C)(Cc1ccc(O)cc1)NC(=O)[C@@H](CCC(=O)O)NC(=O)[C@@H](NC(=O)[C@H](Cc1ccccc1)NC(=O)[C@H](CCC(=O)O)NC(=O)C(C)(C)NC(=O)[C@H](CCC(N)=O)NC(=O)[C@H](C)NC(=O)[C@H](CCCCNC(=O)COCCOCCNC(=O)COCCOCCNC(=O)CC[C@H](NC(=O)CCCCCCCCCCCCC(=O)O)C(=O)O)NC(=O)[C@H](CCCN)NC(=O)[C@H](CC(=O)O)NC(=O)[C@H](CC(C)C)NC(=O)[C@](C)(CC(C)C)NC(=O)[C@@H](NC(=O)[C@H](CO)NC(=O)[C@](C)(CC(C)C)NC(=O)[C@H](CC(=O)O)NC(=O)[C@H](CO)NC(=O)[C@@H](NC(=O)[C@](C)(Cc1ccccc1F)NC(=O)[C@@H](NC(=O)CNC(=O)[C@H](CCC(=O)O)NC(=O)C(C)(C)NC(=O)[C@@H](N)Cc1ccc(O)cc1)[C@@H](C)O)[C@@H](C)O)[C@@H](C)CC)[C@@H](C)CC)C(=O)N[C@@H](CCC(=O)O)C(=O)NCC(=O)NCC(=O)N[C@@H](CCCCNC(=O)COCCOCCNC(=O)COCCOCCNC(=O)CC[C@H](NC(=O)CCCCCCCCCCCCC(=O)O)C(=O)O)C(=O)N[C@@H](CO)C(=O)N[C@@H](CO)C(=O)NCC(=O)N[C@@H](C)C(=O)N1CCC[C@H]1C(=O)N1CCC[C@H]1C(=O)N1CCC[C@H]1C(=O)N[C@@H](CO)C(N)=O` [Example 51], the 50% effective concentration (EC50) was above 9950 nM on hGCGR (0.1% bovine casein and 1.0% human serum albumin, 37° C., geometric mean); above 9950 nM at hGCGR (cAMP, incubated at 37° C., 0.1% bovine casein (no human serum albumin), geometric mean); 0.11 nM at hGIPR (incubated at 37° C.). Also, the Emax on hGIPR (HEK293, 0.1% bovine casein and 1.0% human serum albumin, 37° C.) was found to be 90.7%; at hGLP-1R (HEK293, 0.1% bovine casein and 1.0% human serum albumin, percent of maximal response to GLP-1(7-36)NH2), 92.9%; at hGLP-1R (HEK293, percent of maximal response to GLP-1(7-36)NH2, 0.1% bovine casein, arithmetic mean), 85.7 ± 9.8%.
As for `CC[C@H](C)[C@H](NC(=O)[C@H](CC(C)C)NC(=O)[C@](C)(Cc1ccc(O)cc1)NC(=O)[C@@H](CCC(=O)O)NC(=O)[C@@H](NC(=O)[C@H](Cc1ccccc1)NC(=O)[C@H](CCCCNC(=O)COCCOCCNC(=O)CC[C@H](NC(=O)CCCCCCCCCCCCC(=O)O)C(=O)O)NC(=O)C(C)(C)NC(=O)[C@H](CCC(N)=O)NC(=O)[C@H](C)NC(=O)[C@H](CCCCNC(=O)COCCOCCNC(=O)CC[C@H](NC(=O)CCCCCCCCCCCCC(=O)O)C(=O)O)NC(=O)[C@H](CCCN)NC(=O)[C@H](CC(=O)O)NC(=O)[C@H](CC(C)C)NC(=O)[C@](C)(CC(C)C)NC(=O)[C@@H](NC(=O)C(C)(C)NC(=O)[C@@H](NC(=O)[C@H](CC(=O)O)NC(=O)[C@H](CO)NC(=O)[C@@H](NC(=O)[C@](C)(Cc1ccccc1F)NC(=O)[C@@H](NC(=O)CNC(=O)[C@H](CCC(=O)O)NC(=O)C(C)(C)NC(=O)[C@@H](N)Cc1ccc(O)cc1)[C@@H](C)O)[C@@H](C)O)C(C)C)[C@@H](C)CC)[C@@H](C)CC)C(=O)N[C@@H](CCC(=O)O)C(=O)NCC(=O)NCC(=O)N1CCC[C@H]1C(=O)N[C@@H](CO)C(=O)N[C@@H](CO)C(=O)NCC(=O)N[C@@H](C)C(=O)N1CCC[C@H]1C(=O)N1CCC[C@H]1C(=O)N1CCC[C@H]1C(=O)N[C@@H](CO)C(N)=O` [Example 398], the EC50 is above 9950 nM at hGCGR (cAMP, 37° C., 0.1% bovine casein (no human serum albumin), geometric mean); above 9950 nM on hGCGR (cAMP, 37° C., 0.1% bovine casein and 1.0% human serum albumin, geometric mean (SEM, n)); 0.0166 nM at hGIPR (37° C.); 0.215 nM at hGLP-1R (0.1% bovine casein (no human serum albumin), geometric mean); 41.3 nM on hGLP-1R (0.1% bovine casein and 1.0% human serum albumin, geometric mean (SEM, n)). Besides, the maximal effect (Emax) at hGIPR (HEK293, cAMP, 37° C., 0.1% bovine casein and 1.0% human serum albumin) is 91.9%; on hGIPR (HEK293, cAMP, 37° C., 0.1% bovine casein, arithmetic mean), 97.4%.
